Legend:
[1] = target: T1, HiBit-BRG1 fusion protein (Homo sapiens, UniProt P51532); experiment: HiBiT-BRG1 cell-based degradation assay (Nano-Glo HiBiT Lytic Detection, 24 h); details: stable HeLa cell line expressing HiBit-BRG1 and LgBit; for Dmax: read-out: BRG1 HiBit Degradation Maximum (%); for DC50: read-out: BRMG1 HiBit Degradation IC50
T1 construct: expressed in transfected cells
Description: (§1) Procedure: A stable HeLa cell line expressing HiBiT-BRM was generated. On day 0, 5000 cells were seeded in 40 μL of media into each well of 384-well cell culture plates. On day 1, cells were treated with 120 nL DMSO or 120 nL of 3-fold serially DMSO-diluted compounds (10 points in duplicate with 30 μM as final top dose). Subsequently plates were incubated for 24 h in a standard tissue culture incubator and equilibrated at room temperature for 15 minutes. Nano-Glo HiBiT Lytic Detection System (Promega N3050) reagent was freshly prepared and 20 ul was added to each well. Upon addition of this LgBit-containing reagent, the HiBiT and LgBiT proteins associate to form the luminescent NanoBiT Iuciferase. The plates were shaken for 10 minutes at room temperature and the bioluminescence read using an EnVision plate reader (PerkinElmer).
For measurement of BRG1 degradation, a stable HeLa cell line expressing HiBit-BRG1 and LgBit was generated. The same protocol as above was then followed.
(§2) The degradation % was calculated using the following formula: % degradation=100%-100%×(LumSample−LumLC)/(LumHC−LumLC). DMSO treated cells are employed as High Control (HC) and 2 μM of a known BRM/BRG1 degrader standard treated cells are employed as Low Control (LC).

[2] = target: T2, HiBit-BRM fusion protein (Homo sapiens, UniProt P51531); experiment: HiBiT-BRM cell-based degradation assay (Nano-Glo HiBiT Lytic Detection, 24 h); details: stable HeLa cell line expressing HiBiT-BRM; for DC50: read-out: BRM HiBit Degradation IC50
T2 construct: expressed in transfected cells
T2 sequence (P51531 whole entry, the tested form may be a part): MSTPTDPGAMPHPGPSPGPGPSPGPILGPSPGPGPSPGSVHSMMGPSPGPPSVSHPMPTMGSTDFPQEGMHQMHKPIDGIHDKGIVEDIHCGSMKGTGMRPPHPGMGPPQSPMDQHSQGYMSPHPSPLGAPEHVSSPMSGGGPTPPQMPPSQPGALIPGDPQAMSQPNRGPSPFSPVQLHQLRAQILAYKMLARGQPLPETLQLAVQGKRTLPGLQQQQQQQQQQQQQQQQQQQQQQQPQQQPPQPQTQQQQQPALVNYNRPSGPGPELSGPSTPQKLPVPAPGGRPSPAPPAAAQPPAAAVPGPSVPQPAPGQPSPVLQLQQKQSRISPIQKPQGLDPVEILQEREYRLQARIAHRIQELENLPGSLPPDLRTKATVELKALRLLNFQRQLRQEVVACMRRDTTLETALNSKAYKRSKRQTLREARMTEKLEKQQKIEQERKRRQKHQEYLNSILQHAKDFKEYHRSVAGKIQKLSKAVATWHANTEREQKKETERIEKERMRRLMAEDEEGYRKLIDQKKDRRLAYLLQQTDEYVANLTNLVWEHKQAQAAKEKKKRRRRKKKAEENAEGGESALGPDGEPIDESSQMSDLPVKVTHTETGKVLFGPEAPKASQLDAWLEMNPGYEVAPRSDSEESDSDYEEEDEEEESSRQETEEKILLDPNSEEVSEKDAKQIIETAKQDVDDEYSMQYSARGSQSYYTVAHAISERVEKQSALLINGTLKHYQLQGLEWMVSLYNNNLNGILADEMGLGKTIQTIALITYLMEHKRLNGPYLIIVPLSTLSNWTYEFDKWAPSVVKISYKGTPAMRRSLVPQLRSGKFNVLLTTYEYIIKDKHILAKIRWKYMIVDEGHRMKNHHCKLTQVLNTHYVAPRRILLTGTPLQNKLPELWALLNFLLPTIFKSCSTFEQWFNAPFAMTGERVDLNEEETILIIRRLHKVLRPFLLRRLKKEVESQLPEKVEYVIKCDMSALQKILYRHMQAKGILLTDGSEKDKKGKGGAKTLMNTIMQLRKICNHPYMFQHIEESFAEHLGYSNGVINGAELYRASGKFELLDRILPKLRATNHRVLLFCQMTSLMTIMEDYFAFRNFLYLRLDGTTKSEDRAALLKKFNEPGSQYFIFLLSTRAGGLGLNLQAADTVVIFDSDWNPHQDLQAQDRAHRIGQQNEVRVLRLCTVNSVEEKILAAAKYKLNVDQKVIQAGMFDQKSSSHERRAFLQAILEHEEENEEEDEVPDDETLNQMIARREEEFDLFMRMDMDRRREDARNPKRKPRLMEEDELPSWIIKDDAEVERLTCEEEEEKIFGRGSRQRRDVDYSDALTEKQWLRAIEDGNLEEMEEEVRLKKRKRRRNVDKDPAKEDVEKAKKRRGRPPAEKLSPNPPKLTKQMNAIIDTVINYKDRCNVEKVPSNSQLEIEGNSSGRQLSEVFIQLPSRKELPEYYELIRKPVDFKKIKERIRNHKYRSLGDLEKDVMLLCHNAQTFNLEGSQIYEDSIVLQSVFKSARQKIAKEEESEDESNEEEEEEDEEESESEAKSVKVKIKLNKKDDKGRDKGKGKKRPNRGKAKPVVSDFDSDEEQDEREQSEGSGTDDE
Description: as §1, §2

T1 sequence (P51532 whole entry, the tested form may be a part): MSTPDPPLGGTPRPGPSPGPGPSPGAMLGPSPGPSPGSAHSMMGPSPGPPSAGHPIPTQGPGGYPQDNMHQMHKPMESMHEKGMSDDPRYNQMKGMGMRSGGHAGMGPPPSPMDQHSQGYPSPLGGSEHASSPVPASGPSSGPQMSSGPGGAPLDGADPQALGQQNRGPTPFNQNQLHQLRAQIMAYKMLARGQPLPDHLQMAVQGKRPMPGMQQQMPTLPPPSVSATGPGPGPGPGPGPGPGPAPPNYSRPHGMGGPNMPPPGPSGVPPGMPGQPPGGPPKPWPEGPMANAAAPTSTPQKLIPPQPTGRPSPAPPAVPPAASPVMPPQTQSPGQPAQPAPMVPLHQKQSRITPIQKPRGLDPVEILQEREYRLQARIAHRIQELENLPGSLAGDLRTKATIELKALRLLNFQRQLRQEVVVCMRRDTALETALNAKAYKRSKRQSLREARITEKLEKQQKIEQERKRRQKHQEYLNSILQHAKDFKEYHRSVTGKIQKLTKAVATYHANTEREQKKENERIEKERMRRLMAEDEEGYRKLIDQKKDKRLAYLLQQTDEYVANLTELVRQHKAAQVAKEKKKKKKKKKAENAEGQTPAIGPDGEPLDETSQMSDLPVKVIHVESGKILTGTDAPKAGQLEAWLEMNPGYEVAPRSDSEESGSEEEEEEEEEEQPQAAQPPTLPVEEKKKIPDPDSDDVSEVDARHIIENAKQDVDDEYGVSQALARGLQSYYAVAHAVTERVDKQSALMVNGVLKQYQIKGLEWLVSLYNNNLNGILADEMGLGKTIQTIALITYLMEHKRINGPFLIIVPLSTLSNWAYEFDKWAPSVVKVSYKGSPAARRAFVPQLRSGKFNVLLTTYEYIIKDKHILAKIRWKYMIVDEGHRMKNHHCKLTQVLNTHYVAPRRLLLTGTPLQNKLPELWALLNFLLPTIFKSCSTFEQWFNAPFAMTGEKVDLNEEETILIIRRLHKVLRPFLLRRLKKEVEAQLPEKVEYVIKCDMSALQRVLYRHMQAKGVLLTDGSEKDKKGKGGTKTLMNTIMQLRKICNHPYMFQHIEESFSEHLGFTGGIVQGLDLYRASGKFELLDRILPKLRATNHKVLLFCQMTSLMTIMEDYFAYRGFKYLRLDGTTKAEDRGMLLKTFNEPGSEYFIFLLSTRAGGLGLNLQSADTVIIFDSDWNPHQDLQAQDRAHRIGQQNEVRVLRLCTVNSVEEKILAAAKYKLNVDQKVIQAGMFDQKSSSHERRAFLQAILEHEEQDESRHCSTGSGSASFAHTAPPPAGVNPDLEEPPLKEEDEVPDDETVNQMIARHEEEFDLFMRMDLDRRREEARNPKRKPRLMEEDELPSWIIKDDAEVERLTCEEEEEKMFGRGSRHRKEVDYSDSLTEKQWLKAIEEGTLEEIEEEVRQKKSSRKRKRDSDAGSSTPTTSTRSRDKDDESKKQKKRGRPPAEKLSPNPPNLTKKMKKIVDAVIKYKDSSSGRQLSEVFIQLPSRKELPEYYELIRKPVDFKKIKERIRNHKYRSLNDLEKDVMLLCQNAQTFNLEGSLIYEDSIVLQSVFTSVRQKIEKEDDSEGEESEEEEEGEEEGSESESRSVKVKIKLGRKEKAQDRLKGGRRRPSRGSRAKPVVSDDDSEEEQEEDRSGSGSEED

Row | Dmax [1] [%] | DC50 [2] [nM] | DC50 [1] [nM] | SMILES | BRM HiBit Degradation Maximum (%) [2]
1 | > 75 | < 10 | – | Cc1ncsc1-c1ccc([C@H](C)NC(=O)[C@@H]2C[C@@H](O)CN2C(=O)[C@@H](c2cc(-c3cnc(NC45CC(c6sc7nnc(-c8ccccc8O)cc7c6C)(C4)C5)nc3)no2)C(C)C)cc1 [Compound 44, (2S,4R)-4-hydroxy-1-((R)-2-(3-(2-((3-(3-(2-hydroxyphenyl)-5-methylthieno[2,3-c]pyridazin-6-yl)bicyclo[1.1.1]pentan-1-yl)amino)pyrimidin-5-yl)isoxazol-5-yl)-3-methylbutanoyl)-N-((S)-1-(4-(4-methylthiazol-5-yl)phenyl)ethyl)pyrrolidine-2-carboxamide] | A (“A” indicates maximum degradation ≥75%)
2 | < 50 | > 10 | – | Cc1ncsc1-c1ccc([C@H](C)NC(=O)[C@@H]2C[C@@H](O)CN2C(=O)[C@@H](c2cc(-c3cnc(N4CCC(c5sc6nnc(-c7ccccc7O)cc6c5C5CC5)CC4)nc3)no2)C(C)C)cc1 [Compound 84, (2S,4R)-1-((R)-2-(3-(2-(4-(5-cyclopropyl-3-(2-hydroxyphenyl)thieno[2,3-c]pyridazin-6-yl)piperidin-1-yl)pyrimidin-5-yl)isoxazol-5-yl)-3-methylbutanoyl)-4-hydroxy-N-((S)-1-(4-(4-methylthiazol-5-yl)phenyl)ethyl)pyrrolidine-2-carboxamide] | B (“B” indicates maximum degradation ≥50%)
3 | < 50 | > 10 | – | Cc1cc(N2CC[C@H](c3sc4nnc(-c5ccccc5O)cc4c3C)C2)ncc1-c1cc([C@H](C(=O)N2C[C@H](O)C[C@H]2C(=O)N[C@@H](C)c2ccc(-c3scnc3C)cc2)C(C)C)on1 [Compound 97, (2S,4R)-4-hydroxy-1-((R)-2-(3-(6-((S)-3-(3-(2-hydroxyphenyl)-5-methylthieno[2,3-c]pyridazin-6-yl)pyrrolidin-1-yl)-4-methylpyridin-3-yl)isoxazol-5-yl)-3-methylbutanoyl)-N-((S)-1-(4-(4-methylthiazol-5-yl)phenyl)ethyl)pyrrolidine-2-carboxamide] | A (“A” indicates maximum degradation ≥75%)
4 | < 50 | < 10 | > 1000 | Cc1ncsc1-c1ccc([C@H](C)NC(=O)[C@@H]2C[C@@H](O)CN2C(=O)[C@@H](c2cc(-c3cnc(N4CC[C@@H](c5sc6nnc(-c7ccccc7O)cc6c5C)C[C@H]4C)nc3)no2)C(C)C)cc1 [Compound 30, (2S,4R)-4-hydroxy-1-((R)-2-(3-(2-((2R,4R)-4-(3-(2-hydroxyphenyl)-5-methylthieno[2,3-c]pyridazin-6-yl)-2-methylpiperidin-1-yl)pyrimidin-5-yl)isoxazol-5-yl)-3-methylbutanoyl)-N-((S)-1-(4-(4-methylthiazol-5-yl)phenyl)ethyl)pyrrolidine-2-carboxamide] | A (“A” indicates maximum degradation ≥75%)
5 | < 50 | < 10 | > 1000 | Cc1ncsc1-c1ccc([C@H](C)NC(=O)[C@@H]2C[C@@H](O)CN2C(=O)[C@@H](c2cc(-c3ccc(N4CCC(c5sc6nnc(-c7ccccc7O)cc6c5C)CC4)cn3)no2)C(C)C)cc1 [Compound 34, (2S,4R)-4-hydroxy-1-((R)-2-(3-(5-(4-(3-(2-hydroxyphenyl)-5-methylthieno[2,3-c]pyridazin-6-yl)piperidin-1-yl)pyridin-2-yl)isoxazol-5-yl)-3-methylbutanoyl)-N-((S)-1-(4-(4-methylthiazol-5-yl)phenyl)ethyl)pyrrolidine-2-carboxamide] | A (“A” indicates maximum degradation ≥75%)
6 | > 50 | < 10 | > 10 | Cc1ncsc1-c1ccc([C@H](C)NC(=O)[C@@H]2C[C@@H](O)CN2C(=O)[C@@H](c2cc(N3C[C@@H]4[C@H](C3)[C@H]4c3sc4nnc(-c5ccccc5O)cc4c3C)no2)C(C)C)cc1 [Compound 16, (2S,4R)-4-hydroxy-1-((R)-2-(3-((1R,5S,6R)-6-(3-(2-hydroxyphenyl)-5-methylthieno[2,3-c]pyridazin-6-yl)-3-azabicyclo[3.1.0]hexan-3-yl)isoxazol-5-yl)-3-methylbutanoyl)-N-((S)-1-(4-(4-methylthiazol-5-yl)phenyl)ethyl)pyrrolidine-2-carboxamide] | A (“A” indicates maximum degradation ≥75%)
7 | > 50 | < 10 | – | Cc1ncsc1-c1ccc([C@H](C)NC(=O)[C@@H]2C[C@@H](O)CN2C(=O)[C@@H](c2cc(-c3cnc(N4CC[C@H](c5cc6nnc(-c7ccccc7O)cc6s5)C4)nc3)no2)C(C)C)cc1 [Compound 91, (2S,4R)-4-hydroxy-1-((R)-2-(3-(2-((S)-3-(3-(2-hydroxyphenyl)thieno[3,2-c]pyridazin-6-yl)pyrrolidin-1-yl)pyrimidin-5-yl)isoxazol-5-yl)-3-methylbutanoyl)-N-((S)-1-(4-(4-methylthiazol-5-yl)phenyl)ethyl)pyrrolidine-2-carboxamide] | A (“A” indicates maximum degradation ≥75%)
8 | > 75 | < 10 | > 10 | Cc1ncsc1-c1ccc([C@H](C)NC(=O)[C@@H]2C[C@@H](O)CN2C(=O)[C@@H](c2cc(-c3cnc(N4CCN(c5cc6nnc(-c7ccccc7O)cc6s5)CC4)nc3)no2)C(C)C)cc1 [Compound 9, (2S,4R)-4-hydroxy-1-{2-[3-(2-{4-[3-(2-hydroxyphenyl)thieno[3,2-c]pyridazin-6-yl]piperazin-1-yl}pyrimidin-5-yl)-1,2-oxazol-5-yl]-3-methylbutanoyl}-N-[(1S)-1-[4-(4-methyl-1,3-thiazol-5-yl)phenyl]ethyl]pyrrolidine-2-carboxamide] | A (“A” indicates maximum degradation ≥75%)
9 | < 50 | > 10 | > 1000 | COc1nc(N2CCC(c3sc4nnc(-c5ccccc5O)cc4c3C)CC2)ccc1-c1cc([C@H](C(=O)N2C[C@H](O)C[C@H]2C(=O)N[C@@H](C)c2ccc(-c3scnc3C)cc2)C(C)C)on1 [Compound 20, (2S,4R)-4-hydroxy-1-((R)-2-(3-(6-(4-(3-(2-hydroxyphenyl)-5-methylthieno[2,3-c]pyridazin-6-yl)piperidin-1-yl)-2-methoxypyridin-3-yl)isoxazol-5-yl)-3-methylbutanoyl)-N-((S)-1-(4-(4-methylthiazol-5-yl)phenyl)ethyl)pyrrolidine-2-carboxamide] | A (“A” indicates maximum degradation ≥75%)
10 | < 50 | > 10 | > 1000 | Cc1ncsc1-c1ccc([C@H](C)NC(=O)[C@@H]2C[C@@H](O)CN2C(=O)[C@@H](c2cc(-c3cnc(N4CC[C@@H](c5sc6nnc(-c7ccccc7O)cc6c5C)[C@H](C)C4)nc3)no2)C(C)C)cc1 [Compound 25, (2S,4R)-4-hydroxy-1-((R)-2-(3-(2-((3S,4R)-4-(3-(2-hydroxyphenyl)-5-methylthieno[2,3-c]pyridazin-6-yl)-3-methylpiperidin-1-yl)pyrimidin-5-yl)isoxazol-5-yl)-3-methylbutanoyl)-N-((S)-1-(4-(4-methylthiazol-5-yl)phenyl)ethyl)pyrrolidine-2-carboxamide] | A (“A” indicates maximum degradation ≥75%)
11 | > 75 | > 10 | < 10 | Cc1ncsc1-c1ccc([C@H](C)NC(=O)[C@@H]2C[C@@H](O)CN2C(=O)[C@@H](c2cc(-c3cnc(N4CC[C@@H](c5sc6nnc(-c7ccccc7O)cc6c5C)C4)nc3)no2)C(C)C)cc1 [Compound 47, (2S,4R)-4-hydroxy-1-((R)-2-(3-(2-((R)-3-(3-(2-hydroxyphenyl)-5-methylthieno[2,3-c]pyridazin-6-yl)pyrrolidin-1-yl)pyrimidin-5-yl)isoxazol-5-yl)-3-methylbutanoyl)-N-((S)-1-(4-(4-methylthiazol-5-yl)phenyl)ethyl)pyrrolidine-2-carboxamide] | A (“A” indicates maximum degradation ≥75%)
12 | < 50 | > 10 | – | Cc1ncsc1-c1ccc([C@H](C)NC(=O)[C@@H]2C[C@@H](O)CN2C(=O)[C@@H](c2cc(N3CCN(c4sc5nnc(-c6ccccc6O)cc5c4C)CC3)no2)C(C)C)cc1 [Compound 80, (2S,4R)-4-hydroxy-1-((R)-2-(3-(4-(3-(2-hydroxyphenyl)-5-methylthieno[2,3-c]pyridazin-6-yl)piperazin-1-yl)isoxazol-5-yl)-3-methylbutanoyl)-N-((S)-1-(4-(4-methylthiazol-5-yl)phenyl)ethyl)pyrrolidine-2-carboxamide] | A (“A” indicates maximum degradation ≥75%)

Source: patent US20250304596A1, “PYRAZINE DERIVATIVES AND USES THEREOF” (FOGHORN THERAPEUTICS INC., priority 2022, published 2025)
